# Experiments:
# [1] = target: Rho kinase 1 (Homo sapiens, UniProt Q13464); assay: In vitro Rho kinase inhibitory activity assay (ADP-Glo kit, Myelin Basic Protein substrate); format: biochemical; conditions: 10 μM ATP, 25° C., read-out: ROCK1 inhibitory activity (Ki, range of activity)
# In short: (§1)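 Kinase activity is measured as ADP production (ADP-Glo, luminescence) after 1 hour at 25 °C with 10 μM ATP and 2.5 μM Myelin Basic Protein, following 30 min enzyme–compound preincubation. Buffer is 40 mM Tris pH7.5, 20 mM MgCl2, 0.1 mg/ml BSA, 50 μM DTT.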
# [2] = target: Rho kinase 2 (Homo sapiens, UniProt O75116); assay: as above; format: biochemical; conditions: 10 μM ATP, 25° C., read-out: ROCK2 inhibitory activity (Ki, range of activity)
# In short: as §1
# Sequence of Rho kinase 2 (O75116 whole entry): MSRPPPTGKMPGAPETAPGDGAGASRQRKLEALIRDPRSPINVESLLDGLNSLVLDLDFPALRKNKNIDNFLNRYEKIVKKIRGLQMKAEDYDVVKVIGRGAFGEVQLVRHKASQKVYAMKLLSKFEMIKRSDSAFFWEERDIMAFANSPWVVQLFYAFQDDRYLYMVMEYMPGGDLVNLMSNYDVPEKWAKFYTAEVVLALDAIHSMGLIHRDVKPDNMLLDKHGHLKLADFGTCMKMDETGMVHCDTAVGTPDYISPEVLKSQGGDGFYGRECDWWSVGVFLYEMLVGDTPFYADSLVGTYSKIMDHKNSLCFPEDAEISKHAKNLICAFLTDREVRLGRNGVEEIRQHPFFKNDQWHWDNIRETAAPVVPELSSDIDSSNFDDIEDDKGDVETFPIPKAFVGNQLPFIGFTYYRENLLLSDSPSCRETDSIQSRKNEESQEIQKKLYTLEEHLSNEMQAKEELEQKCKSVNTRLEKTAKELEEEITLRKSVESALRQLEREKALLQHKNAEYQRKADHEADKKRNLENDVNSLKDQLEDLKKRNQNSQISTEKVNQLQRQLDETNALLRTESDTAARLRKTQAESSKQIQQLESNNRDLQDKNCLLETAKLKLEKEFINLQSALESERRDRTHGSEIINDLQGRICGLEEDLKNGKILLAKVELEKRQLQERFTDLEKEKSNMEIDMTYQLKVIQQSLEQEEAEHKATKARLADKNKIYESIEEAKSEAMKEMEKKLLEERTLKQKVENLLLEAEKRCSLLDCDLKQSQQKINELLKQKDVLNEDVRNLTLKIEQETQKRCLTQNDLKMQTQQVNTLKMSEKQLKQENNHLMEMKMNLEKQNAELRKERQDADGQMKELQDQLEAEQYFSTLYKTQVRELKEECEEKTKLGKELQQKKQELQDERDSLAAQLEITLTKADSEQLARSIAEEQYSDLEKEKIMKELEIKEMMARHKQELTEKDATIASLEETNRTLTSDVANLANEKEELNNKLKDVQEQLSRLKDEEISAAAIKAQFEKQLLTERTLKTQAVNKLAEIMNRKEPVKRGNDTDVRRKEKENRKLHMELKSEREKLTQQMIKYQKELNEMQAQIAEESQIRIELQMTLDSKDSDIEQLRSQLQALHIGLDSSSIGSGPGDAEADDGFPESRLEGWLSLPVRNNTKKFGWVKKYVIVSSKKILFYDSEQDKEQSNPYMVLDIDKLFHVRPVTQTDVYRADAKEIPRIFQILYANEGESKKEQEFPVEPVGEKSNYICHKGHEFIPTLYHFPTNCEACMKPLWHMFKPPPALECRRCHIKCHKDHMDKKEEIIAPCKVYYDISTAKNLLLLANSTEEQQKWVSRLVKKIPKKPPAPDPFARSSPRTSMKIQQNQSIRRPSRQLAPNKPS
# Sequence of Rho kinase 1 (Q13464 whole entry): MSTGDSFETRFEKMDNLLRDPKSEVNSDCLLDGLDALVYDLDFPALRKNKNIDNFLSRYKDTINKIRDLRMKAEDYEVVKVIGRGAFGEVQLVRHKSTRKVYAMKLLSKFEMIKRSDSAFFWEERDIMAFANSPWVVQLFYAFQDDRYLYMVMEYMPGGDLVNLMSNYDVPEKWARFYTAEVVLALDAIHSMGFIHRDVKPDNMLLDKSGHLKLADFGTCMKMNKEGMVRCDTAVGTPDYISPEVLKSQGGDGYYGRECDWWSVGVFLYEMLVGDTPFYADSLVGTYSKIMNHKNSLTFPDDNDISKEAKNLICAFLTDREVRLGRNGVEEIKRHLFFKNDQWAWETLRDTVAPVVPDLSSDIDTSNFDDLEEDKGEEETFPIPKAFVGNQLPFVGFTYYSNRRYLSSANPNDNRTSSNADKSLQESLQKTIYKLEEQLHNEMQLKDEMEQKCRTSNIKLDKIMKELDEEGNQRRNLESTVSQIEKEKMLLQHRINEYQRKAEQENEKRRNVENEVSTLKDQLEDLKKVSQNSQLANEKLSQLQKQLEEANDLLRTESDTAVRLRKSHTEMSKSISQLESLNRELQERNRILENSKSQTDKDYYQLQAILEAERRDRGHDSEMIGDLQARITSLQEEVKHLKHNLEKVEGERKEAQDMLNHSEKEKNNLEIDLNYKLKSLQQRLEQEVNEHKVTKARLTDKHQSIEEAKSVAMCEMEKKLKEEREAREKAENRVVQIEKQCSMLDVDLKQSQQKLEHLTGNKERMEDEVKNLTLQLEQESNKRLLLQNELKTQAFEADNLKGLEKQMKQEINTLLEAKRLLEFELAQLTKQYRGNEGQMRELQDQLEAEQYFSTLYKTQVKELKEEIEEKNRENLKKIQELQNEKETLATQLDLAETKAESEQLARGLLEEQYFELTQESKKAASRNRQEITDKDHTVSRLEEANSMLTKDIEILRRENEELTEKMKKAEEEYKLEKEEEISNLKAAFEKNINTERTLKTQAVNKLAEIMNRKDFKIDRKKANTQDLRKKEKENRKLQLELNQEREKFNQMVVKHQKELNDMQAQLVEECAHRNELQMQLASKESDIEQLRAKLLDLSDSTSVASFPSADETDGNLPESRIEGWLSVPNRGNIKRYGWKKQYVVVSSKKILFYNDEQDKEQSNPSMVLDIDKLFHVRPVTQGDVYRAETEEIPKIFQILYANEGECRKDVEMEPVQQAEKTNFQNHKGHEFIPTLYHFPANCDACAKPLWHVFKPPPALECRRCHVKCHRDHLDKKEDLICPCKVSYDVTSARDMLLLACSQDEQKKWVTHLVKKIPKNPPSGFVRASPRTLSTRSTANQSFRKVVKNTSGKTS
Compound,Ki [1],Ki [2]
"CC1=C(C(=O)Nc2ccc3cnccc3c2)C(c2ccc(C)c(F)c2)n2nc(CN(C)C)cc2N1 (single isomer, unassigned) [Example 110A, 2-((dimethylamino)methyl)-7-(3-fluoro-4-methylphenyl)-N-(isoquinolin-6-yl)-5-methyl-4,7-dihydropyrazolo[1,5-a]pyrimidine-6-carboxamide]",50 to 500 nM,50 to 500 nM
"CC1=C(C(=O)Nc2ccc3cnccc3c2)C(c2ccc(C(F)(F)F)c(F)c2)n2nc(NC(=O)CCN3CCCCC3)cc2N1 (centres unmarked) [Example 131, 7-(3-Fluoro-4-(trifluoromethyl)phenyl)-N-(isoquinolin-6-yl)-5-methyl-2-(3-(piperidin-1-yl)propanamido)-4,7-dihydropyrazolo[1,5-a]pyrimidine-6-carboxamide]",< 50 nM,< 50 nM
"CCOC(=O)c1cc2n(n1)C(c1ccc(Cl)nc1)C(C(=O)Nc1ccc3[nH]ncc3c1)=C(C)N2 (centres unmarked) [Example 5, ethyl 6-((1H-indazol-5-yl)carbamoyl)-7-(6-chloropyridin-3-yl)-5-methyl-4,7-dihydropyrazolo[1,5-a]pyrimidine-2-carboxylate]",< 50 nM,< 50 nM
"CC1=C(C(=O)Nc2ccc3cnccc3c2)C(c2ccc(Br)cc2)n2nc(CO)cc2N1 (single isomer, unassigned) [Example 61B, 7-(4-bromophenyl)-2-(hydroxymethyl)-N-(isoquinolin-6-yl)-5-methyl-4,7-dihydropyrazolo[1,5-a]pyrimidine-6-carboxamide]",50 to 500 nM,50 to 500 nM
"CC1=C(C(=O)Nc2ccc3[nH]ncc3c2)C(c2ccc(F)cc2)n2nc(CO)cc2N1 (single isomer, unassigned) [Example 71B, 7-(4-fluorophenyl)-2-(hydroxymethyl)-N-(1H-indazol-5-yl)-5-methyl-4,7-dihydropyrazolo[1,5-a]pyrimidine-6-carboxamide]",> 500 nM,> 500 nM
"CC1=C(C(=O)Nc2ccc3cnccc3c2)C(c2ccc(C(F)(F)F)c(F)c2)n2nc(C(=O)NCCN3CCCCC3)cc2N1 (centres unmarked) [Example 77, 7-(3-fluoro-4-(trifluoromethyl)phenyl)-N6-(isoquinolin-6-yl)-5-methyl-N2-(2-(piperidin-1-yl)ethyl)-4,7-dihydropyrazolo[1,5-a]pyrimidine-2,6-dicarboxamide]",< 50 nM,< 50 nM
"CC1=C(C(=O)Nc2ccc3cnccc3c2)C(c2ccc(C)c(F)c2)n2nc(NC(=O)CN3CCCC3)cc2N1 (centres unmarked) [Example 134, 7-(3-fluoro-4-methylphenyl)-N-(isoquinolin-6-yl)-5-methyl-2-(2-(pyrrolidin-1-yl)acetamido)-4,7-dihydropyrazolo[1,5-a]pyrimidine-6-carboxamide]",< 50 nM,< 50 nM
"CC1=C(C(=O)Nc2ccc3cnccc3c2)C(c2ccc(C(F)(F)F)c(F)c2)n2nc(NC(=O)c3ccc(CN(C)C)cc3)cc2N1 (single isomer, unassigned) [Example 137A, 2-(4-((Dimethylamino)methyl)benzamido)-7-(3-fluoro-4-(trifluoromethyl)-phenyl)-N-(isoquinolin-6-yl)-5-methyl-4,7-dihydropyrazolo[1,5-a]pyrimidine-6-carboxamide]",> 500 nM,> 500 nM
"CC1=C(C(=O)Nc2ccc3cnccc3c2)C(C23CC4CC(CC(C4)C2)C3)n2nc(CO)cc2N1 (centres unmarked) [Example 48, 7-((3r,5r,7r)-adamantan-1-yl)-2-(hydroxymethyl)-N-(isoquinolin-6-yl)-5-methyl-4,7-dihydropyrazolo[1,5-a]pyrimidine-6-carboxamide]",50 to 500 nM,50 to 500 nM
"CC1=C(C(=O)Nc2ccc3[nH]ncc3c2)C(c2ccc(C(F)(F)F)cc2)n2nc(CO)cc2N1 (single isomer, unassigned) [Example 69B, 2-(hydroxymethyl)-N-(1H-indazol-5-yl)-5-methyl-7-(4-(trifluoromethyl)phenyl)-4,7-dihydropyrazolo[1,5-a]pyrimidine-6-carboxamide]",< 50 nM,< 50 nM
"CCOC(=O)c1cc2n(n1)C(c1ccc(Cl)cc1F)C(C(=O)Nc1ccc3[nH]ncc3c1)=C(C)N2 (single isomer, unassigned) [Example 7B, ethyl 6-((1H-indazol-5-yl)carbamoyl)-7-(4-chloro-2-fluorophenyl)-5-methyl-4,7-dihydropyrazolo[1,5-a]pyrimidine-2-carboxylate]",< 50 nM,< 50 nM
"CC1=C(C(=O)Nc2ccc3cnccc3c2)C(c2ccc(C(F)(F)F)c(F)c2)n2nc(NC(=O)COC3CCN(C)CC3)cc2N1 (centres unmarked) [Example 133, 7-(3-fluoro-4-(trifluoromethyl)phenyl)-N-(isoquinolin-6-yl)-5-methyl-2-(2-((1-methylpiperidin-4-yl)oxy)acetamido)-4,7-dihydropyrazolo[1,5-a]pyrimidine-6-carboxamide]",< 50 nM,< 50 nM

# Second part, the compound after the results:
Ki [1],Ki [2],Compound
< 50 nM,< 50 nM,"CC1=C(C(=O)Nc2ccc3cnccc3c2)C(c2ccc(C(F)(F)F)cc2)n2nc(CO)cc2N1 (single isomer, unassigned) [Example 43B, 2-(hydroxymethyl)-N-(isoquinolin-6-yl)-5-methyl-7-(4-(trifluoromethyl)phenyl)-4,7-dihydropyrazolo[1,5-a]pyrimidine-6-carboxamide]"
< 50 nM,< 50 nM,"CC1=C(C(=O)Nc2ccc3cnccc3c2)C(c2ccc(C(F)(F)F)c(F)c2)n2nc(CN)cc2N1 (centres unmarked) [Example 112, 2-(aminomethyl)-7-(3-fluoro-4-(trifluoromethyl)phenyl)-N-(isoquinolin-6-yl)-5-methyl-4,7-dihydropyrazolo[1,5-a]pyrimidine-6-carboxamide]"
< 50 nM,< 50 nM,"CC1=C(C(=O)Nc2ccc3cnccc3c2)C(c2ccc(C)c(F)c2F)n2nc(CN(C)C)cc2N1 (single isomer, unassigned) [Example 121b, 7-(2,3-difluoro-4-methylphenyl)-2-((dimethylamino)methyl)-N-(isoquinolin-6-yl)-5-methyl-4,7-dihydropyrazolo[1,5-a]pyrimidine-6-carboxamide]"
< 50 nM,< 50 nM,"CC1=C(C(=O)Nc2ccc3cnccc3c2)C(c2ccc(Cl)cc2F)n2nc(CO)cc2N1 (centres unmarked) [Example 64, 7-(4-chloro-2-fluorophenyl)-2-(hydroxymethyl)-N-(isoquinolin-6-yl)-5-methyl-4,7-dihydropyrazolo[1,5-a]pyrimidine-6-carboxamide]"
< 50 nM,< 50 nM,"CCOC(=O)c1cc2n(n1)C(c1ccc(C(F)(F)F)c(F)c1)C(C(=O)Nc1cc3ccncc3s1)=C(C)N2 (centres unmarked) [Example 42, ethyl 7-(3-fluoro-4-(trifluoromethyl)phenyl)-5-methyl-6-(thieno[2,3-c]pyridin-2-ylcarbamoyl)-4,7-dihydropyrazolo[1,5-a]pyrimidine-2-carboxylate]"
< 50 nM,< 50 nM,"CCOC(=O)c1cc2n(n1)C(c1ccc(C(F)(F)F)c(F)c1)C(C(=O)Nc1ccc3cncc(C)c3c1)=C(C)N2 (centres unmarked) [Example 114, ethyl 7-(3-fluoro-4-(trifluoromethyl)phenyl)-5-methyl-6-((4-methylisoquinolin-6-yl)carbamoyl)-4,7-dihydropyrazolo[1,5-a]pyrimidine-2-carboxylate]"
< 50 nM,< 50 nM,"CC1=C(C(=O)Nc2ccc3cnccc3c2)C(c2ccc(C(F)(F)F)c(F)c2)n2nc(C(=O)NC3CC(F)(F)C3)cc2N1 (centres unmarked) [Example 128, N2-(3,3-difluorocyclobutyl)-7-(3-fluoro-4-(trifluoromethyl)phenyl)-N6-(isoquinolin-6-yl)-5-methyl-4,7-dihydropyrazolo[1,5-a]pyrimidine-2,6-dicarboxamide]"
< 50 nM,< 50 nM,"CC1=C(C(=O)Nc2ccc3cnccc3c2)C(c2cnc(-c3ccccc3)s2)n2nc(CO)cc2N1 (centres unmarked) [Example 52, 2-(hydroxymethyl)-N-(isoquinolin-6-yl)-5-methyl-7-(2-phenylthiazol-5-yl)-4,7-dihydropyrazolo[1,5-a]pyrimidine-6-carboxamide]"
< 50 nM,< 50 nM,"CC1=C(C(=O)Nc2ccc3cnccc3c2)C(c2ccc(C(F)(F)F)c(F)c2)n2nc(C(=O)N(C)C)cc2N1 (centres unmarked) [Example 126, 7-(3-fluoro-4-(trifluoromethyl)phenyl)-N6-(isoquinolin-6-yl)-N2,N2,5-trimethyl-4,7-dihydropyrazolo[1,5-a]pyrimidine-2,6-dicarboxamide]"
< 50 nM,< 50 nM,"CC1=C(C(=O)Nc2ccc3cnccc3c2)C(c2ccc(C(F)(F)F)c(F)c2)n2nc(CO)cc2N1 (single isomer, unassigned) [Example 65B, 7-(3-fluoro-4-(trifluoromethyl)phenyl)-2-(hydroxymethyl)-N-(isoquinolin-6-yl)-5-methyl-4,7-dihydropyrazolo[1,5-a]pyrimidine-6-carboxamide]"
< 50 nM,< 50 nM,"CC1=C(C(=O)Nc2ccc3cnccc3c2)C(c2ccc3cc[nH]c3c2)n2nc(CO)cc2N1 (centres unmarked) [Example 63, 2-(hydroxymethyl)-7-(1H-indol-6-yl)-N-(isoquinolin-6-yl)-5-methyl-4,7-dihydropyrazolo[1,5-a]pyrimidine-6-carboxamide]"
50 to 500 nM,50 to 500 nM,"CC1=C(C(=O)Nc2ccc3cnccc3c2)C(C2COc3ccccc3O2)n2nc(CO)cc2N1 (single isomer, unassigned) [Example 72D, 7-(2,3-dihydrobenzo[b][1,4]dioxin-2-yl)-2-(hydroxymethyl)-N-(isoquinolin-6-yl)-5-methyl-4,7-dihydropyrazolo[1,5-a]pyrimidine-6-carboxamide]"
50 to 500 nM,50 to 500 nM,"CCOC(=O)c1cc2n(n1)C(C1CCOCC1)C(C(=O)Nc1ccc3[nH]ncc3c1)=C(C)N2 (centres unmarked) [Example 11, ethyl 6-((1H-indazol-5-yl)carbamoyl)-5-methyl-7-(tetrahydro-2H-pyran-4-yl)-4,7-dihydropyrazolo[1,5-a]pyrimidine-2-carboxylate]"

# — patent publication US10584128B2, “Bicyclic dihydropyrimidine-carboxamide derivatives as Rho-Kinase inhibitors” (CHIESI FARMACEUTICI S.p.A., priority 2016, dated 2020)
